“And” between values parts separate entries of the source, which are not always exact repeats. Equal values may be shown once.
Assays:
[1] = system: RL diffuse large B-cell lymphoma (DLBCL) xenograft; assay: Anti-tumor activity in RL DLBCL xenograft model; type: in vivo; settings: alone or with CHOP regimen; for Tumor Growth Inhibition (TGI) on Day 25: vs control huIgG
Procedure: The anti-tumor activity of HCD122 was tested in RL DLBCL xenograft models in combination with CHOP in CB17/SCID mice. 10×10^6 RL cells were subcutaneously implanted with equal volume of Matrigel™ in the animals' midline thoracic vertebral region in a 200 μl volume. The antibody administration was initiated when the mean tumor volume was 150-200 mm^3 in size (noted as day 1 in FIG. 1). […] All monoclonal antibodies were administered on a once-a-week schedule, and the length of treatment was 4 weeks. The CHOP regimen was administered at these doses and schedule: prednisone, 0.2 mg/kg p.o. days 1-5; cytoxan, 40 mg/kg, i.v., day 1; doxorubicin 3.3 mg/kg, i.v., day 1; vincristine, 0.5 mg/kg, i.v., day 1. Group size was n=12. For tumor volume measurements, length then width were measured with a digital caliper. The measurements were recorded twice a week once the tumors became visible. Tumor volumes and doubling times were calculated based on the formula, Volume=L×W^2/2. The animals' weights were recorded and evaluated as a per group average.

soluble CD40 [2] = target: soluble CD40 (Homo sapiens, UniProt P25942); assay: ELISA-type binding assays
cell-surface CD40 = cell-surface CD40 (Homo sapiens, UniProt P25942); assay: Flow cytometric assays of CD40-ligand binding
SU-DHL-4 cell line = assay: CD40L-induced expression of cell-surface adhesion molecules, SU-DHL-4 cells; type: cell-based, human
Procedure: (§1) To further elucidate the mechanism by which the H-CHOP combination results in unexpectedly potent anti-tumour efficacy in vivo, further experiments were performed. The ability of B-cells cells to aggregate and interact with their microenvironment may affect the efficacy of therapeutics. The effects of HCD122 on the expression of adhesion molecules in the RL and SU-DHL-4 cell lines was therefore examined.

SU-DHL-4 cells [3] = assay: CD40L-induced NF-kB activation, p65 phosphorylation Western blot, SU-DHL-4 cells; type: cell-based, human
Procedure: (§2) RL and SU-DHL-4 cells were stimulated with CD40L for 0, 10, 30, and 90 minutes and Western blots were performed (FIG. 3). […] The phosphorylation persisted in these cell lines for at least 90 minutes. […] Down-regulating NF-kB activation in a cell may sensitize the cell to CHOP cytotoxicity (Chuang et al. (2002) Biochemical Pharmacology 63:1709-1716; Cheng et al. (2000) Oncogene 19:4936-4940).

SU-DHL-4 cells [4] = assay: CD40L-induced aggregation of SU-DHL-4 cells by microscopy; type: cell-based, human
RL cell line = assay: CD40L-induced expression of cell-surface adhesion molecules, RL cells; type: cell-based, human
Procedure: as §1

[5] = system: CD40-expressing target cells; assay: Antibody dependent cellular cytotoxicity (ADCC); type: cell-based
Excerpt: (§3) The antibody is able to kill CD40-expressing target cells by antibody dependent cellular cytotoxicity (ADCC). The binding affinity of HCD122 for human CD40 is 5×10^−10 M, as determined by the Biacore™ assay.

RL cells = assay: CD40L-induced NF-kB activation, p65 phosphorylation Western blot, RL cells; type: cell-based, human
Procedure: as §2

[6] = system: B cells from normal human subjects; assay: In vitro proliferation of B cells from normal human subjects; type: cell-based
Procedure: B cells (4×10^4 per well) are cultured in 200 μl IMDM supplemented with 10% fetal calf serum in flat bottom 96-well microtiter plates. B cells are stimulated by addition of immobilized anti-(IgM) antibodies (Immunobeads; 5 μg/ml; BioRad, Richmond, Calif.). Where desired, 100 U/ml recombinant IL-2 is added. Varying concentrations of test monoclonal antibodies (mAbs) are added at the onset of the microcultures and proliferation is assessed at day 3 by measurement of the incorporation of (3H)-thymidine after 18 hour pulsing.
as §3

human CD40 [7] = target: T1, human CD40 (Homo sapiens, UniProt P25942); assay: Biacore binding affinity assay
Excerpt: As used herein “anti-CD40 antibody” encompasses any antibody that specifically recognizes the CD40 antigen. […] Biacore analysis is known in the art and details are provided in the “BIAapplications handbook”.
as §3
Target sequence in this assay (P25942 21-277): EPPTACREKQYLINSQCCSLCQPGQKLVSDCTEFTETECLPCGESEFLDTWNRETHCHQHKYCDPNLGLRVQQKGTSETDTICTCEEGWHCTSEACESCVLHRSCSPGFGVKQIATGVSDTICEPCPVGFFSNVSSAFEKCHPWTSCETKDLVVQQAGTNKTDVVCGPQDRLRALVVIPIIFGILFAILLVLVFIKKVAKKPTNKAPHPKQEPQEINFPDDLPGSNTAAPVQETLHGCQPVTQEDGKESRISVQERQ

SU-DHL-4 cells [8] = assay: CD40L-induced resistance to CHOP cytotoxicity (CellTiter-Glo); type: cell-based, human; settings: antibody 10 μg/ml; CD40L 1 μg/ml; 3 days; percentage of viable cells
Procedure: Experiments were performed to elucidate the mechanism by which the H-CHOP combination provides unexpectedly potent anti-tumour efficacy in vivo. SU-DHL-4 cells were cultured in the presence of (i) negative control huIgG1 antibody, (ii) HCD122, (iii) huIgG1 and CD40L or (iv) HCD122 and CD40L. SU-DHL-4 cells were seeded at 30,000 cells/well. The antibodies were all used at 10 μg/ml. Recombinant human soluble CD40L was used at 1 μg/ml with ligand enhancer at 2 μg/ml. All cells were treated with cytoxan at 1 mg/ml, prednisone at 15 μg/ml, doxrubicin at 2.5 ng/ml and vincristin at 1 pg/ml. Cells were cultured for 3 days and the percentage of viable cells determined using CellTiter-Glo.

human CD40 [9] = target: T1, human CD40; assay: Biacore
soluble CD40 [10] = target: soluble CD40 (UniProt P25942 21-193, limits assumed); assay: ELISA-type assays
[11] = CD40L in the presence of HCD122

Sequence of cell-surface CD40 (P25942 21-277): as above
Sequence of soluble CD40 (UniProt P25942 21-193, limits assumed) (P25942 21-193 limits assumed): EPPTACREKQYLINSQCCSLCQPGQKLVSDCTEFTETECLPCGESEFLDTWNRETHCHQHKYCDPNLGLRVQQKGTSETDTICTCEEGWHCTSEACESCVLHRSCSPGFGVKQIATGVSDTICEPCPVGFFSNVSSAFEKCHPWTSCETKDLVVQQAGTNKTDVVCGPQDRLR
Sequence of soluble CD40 (Homo sapiens, UniProt P25942) (P25942 21-193 limits assumed): as above

Question: With “HCD122: human IgG1 anti-CD40 monoclonal antibody, produced by hybridoma deposited with ATCC as PTA-5543” as the molecule, how does the “Tumor Growth Inhibition (TGI) on Day 25” value ([1]; antibody 0.1 mg/kg i.p. once a week for 4 weeks) read?
Answer: Its value is 28.65%.

Question: And the “Tumor-growth delay (time to reach tumor size of 500 mm^3)” value ([1]; antibody 0.1 mg/kg i.p. once a week)?
Answer: Its value is 1.5 days.

Question: What about the “Tumor Growth Inhibition (TGI) on Day 25” value ([1]; antibody 1 mg/kg i.p. once a week for 4 weeks) of the same molecule?
Answer: Its value is 71% and 71.15%.

Question: What about the “Tumor-growth delay (time to reach tumor size of 500 mm^3)” value ([1]; antibody 1 mg/kg i.p. once a week) of the same molecule?
Answer: Its value is 6 days.

Question: What about the “Binding to soluble CD40” value (soluble CD40 [2]) of the same molecule?
Answer: The value was “binds soluble CD40”.

Question: And the “Binding of CD40-ligand to cell-surface CD40” value (cell-surface CD40)?
Answer: Its value is “prevents the binding”.

Question: What about the “Displacement of pre-bound CD40-ligand” value (cell-surface CD40) of the same molecule?
Answer: The value was “displaces the pre-bound CD40-ligand”.

Question: What about the “CD40L-induced expression of CD54, CD86 and CD95” value (SU-DHL-4 cell line) of the same molecule?
Answer: The value was “inhibit”.

Question: And the “NF-kB activation induced by CD40L” value (SU-DHL-4 cells [3])?
Answer: Its value is “completely blocked”.

Question: What about the “Phosphorylation of p65 on CD40L stimulation” value (SU-DHL-4 cells [3]; [11]) of the same molecule?
Answer: The value was “greatly inhibited”.

Question: What about the “CD40L-induced aggregation of SU-DHL-4 cells” value (SU-DHL-4 cells [4]) of the same molecule?
Answer: The value was “inhibited”.

Question: And the “CD40L-induced expression of CD54, CD86 and CD95” value (RL cell line)?
Answer: Its value is “inhibit”.

Question: And the “Killing of CD40-expressing target cells by ADCC” value [5]?
Answer: Its value is “able to kill”.

Question: What about the “NF-kB activation induced by CD40L” value (RL cells) of the same molecule?
Answer: The value was “completely blocked”.

Question: And the “Phosphorylation of p65 on CD40L stimulation” value (RL cells; [11])?
Answer: Its value is “greatly inhibited”.

Question: And the “Effects on proliferation of B cells from normal human subjects” value [6]?
Answer: The value was “acts as antagonist anti-CD40 antibody”.

Question: What about the “Induction of proliferation of human lymphocytes from normal subjects” value [6] of the same molecule?
Answer: The value was “does not induce strong proliferation”.

Question: And the Kd (human CD40 [7])?
Answer: The Kd was 0.5 nM.

Question: What about the “CD40L-induced resistance to CHOP cytotoxicity” value (SU-DHL-4 cells [8]) of the same molecule?
Answer: Its value is “resistance can be overcome”.

B1: monoclonal antibody HCD122 (antibody, human IgG1, kappa, V domains shown)
VH: QVQLVESGGGVVQPGRSLRLSCAASGFTFSSYGMHWVRQAPGKGLEWVAVISYEESNRYHADSVKGRFTISRDNSKITLYLQMNSLRTEDTAVYYCARDGGIAAPGPDYWGQGTLVTVSS
VL: DIVMTQSPLSLTVTPGEPASISCRSSQSLLYSNGYNYLDWYLQKPGQSPQVLISLGSNRASGVPDRFSGSGSGTDFTLKISRVEAEDVGVYYCMQARQTPFTFGPGTKVDIRR
notes: Fully human IgG1 kappa antibody from XenoMouse; hybridoma ATCC PTA-5543; also called CHIR-12.12; anti-CD40 antibody
Question: Which results are given for B1?
Answer: Kd (human CD40 [9]): 0.5 nM; binding result (soluble CD40 [10]): binds

From patent publication US20110002934A1, “USES OF ANTI-CD40 ANTIBODIES” (Novartis AG, priority 2007, published 2011)
